Earlier results as cited in patent publication US9572826B2, “Compositions for the treatment of hair loss” (priority 2008, dated 2017).

Experiments:
[1] = tested on: hair loss; conditions: human, in vivo
[2] = tested on: alopecia areata; conditions: intralesional injection

| Compound | patients in whom effective [1] | side effects reported [1] | injected sites with hair regrowth [2] |
| --- | --- | --- | --- |
| CC(C)(C)NC(=O)[C@H]1CC[C@H]2[C@@H]3CC[C@H]4NC(=O)C=C[C@]4(C)[C@H]3CC[C@]12C [Finasteride] | approximately 50% | erectile dysfunction and gynecomastica | – |
| CC(C)(C)CC(=O)OCC(=O)[C@@]12OC(C)(C)O[C@@H]1C[C@H]1[C@@H]3CCC4=CC(=O)C=C[C@]4(C)[C@@]3(F)[C@@H](O)C[C@@]12C [triamcinolone hexacetonide] | – | – | 33 out of 34 |
